Reference: patent publication US5098934A, “Method of relieving pain with mercaptoalkanamides” (Roussel Uclaf, priority 1983, dated 1992)

Target: T1, Enkephalinase (Rattus norvegicus, UniProt P07861)
T1 construct: from tissue; host or cells: rat striatum, membrane (particulate) fraction
T1 sequence (P07861 1-750): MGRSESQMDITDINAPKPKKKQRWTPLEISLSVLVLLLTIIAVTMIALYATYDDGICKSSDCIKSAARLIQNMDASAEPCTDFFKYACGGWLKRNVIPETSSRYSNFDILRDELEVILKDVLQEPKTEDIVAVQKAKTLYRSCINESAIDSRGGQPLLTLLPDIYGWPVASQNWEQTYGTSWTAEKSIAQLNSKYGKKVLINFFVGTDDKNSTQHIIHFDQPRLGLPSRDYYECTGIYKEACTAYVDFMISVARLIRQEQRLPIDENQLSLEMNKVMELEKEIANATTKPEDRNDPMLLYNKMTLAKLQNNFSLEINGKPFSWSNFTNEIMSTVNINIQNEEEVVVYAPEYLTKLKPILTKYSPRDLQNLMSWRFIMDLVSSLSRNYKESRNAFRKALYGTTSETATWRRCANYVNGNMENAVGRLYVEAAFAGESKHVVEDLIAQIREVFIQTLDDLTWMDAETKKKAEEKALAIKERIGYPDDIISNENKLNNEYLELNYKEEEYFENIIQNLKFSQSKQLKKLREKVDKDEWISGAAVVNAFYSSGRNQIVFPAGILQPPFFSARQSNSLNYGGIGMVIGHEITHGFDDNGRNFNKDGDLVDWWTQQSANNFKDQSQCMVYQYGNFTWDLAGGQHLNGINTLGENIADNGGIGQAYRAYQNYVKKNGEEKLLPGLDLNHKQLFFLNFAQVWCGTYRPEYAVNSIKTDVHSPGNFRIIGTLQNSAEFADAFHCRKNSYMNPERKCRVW
Test: Inhibition of enkephalinase (rat striatum membrane fraction, tritiated leucine-enkephaline)
Type: biochemical, rats
Settings: 20 nanomole tritiated leucine-enkephaline, 1 mM puromycin, 25° C., 15 minutes, pH 7.4, read-out: Enkaphalinase inhibition CI50 (50% inhibitory concentration)
Method: Enkephalinase activity was determined in a striatum membrane fraction of rats. The striatum was placed in ice and was homogenized in buffered 0.05M Tris with a pH of 7.4 (20 times the volume) and after a first centrifugation at 1000 g, the particular fraction obtained was subjected to two centrifugations for 10 minutes at 20,000 g. The culot was then suspended in buffered Tris and kept at 4° C. The amount of proteins was determined by the Comassie blue method.
After preincubation at 25° C. for 15 minutes, an aliquot of proteins was incubated at 25° C. for 15 minutes in the presence of 20 nanomole of tritiated leucine-enkephaline (against the first amino acid) previously purified, of 1 mM of puromycin and the test product in buffered Tris. The hydrolysis reaction was stopped by addition of 0.2N hydrochloric acid and the incubate was subjected to a deproteinization by heating at 95° C. for 15 minutes. Under these conditions, the kinetic reaction was linear. The tritiated metabolites obtained by hydrolysis were separated from enkephaline by chromatography over a column of porapak Q and elution with buffered Tris whereby enkephaline was retained in the column and was released in the following ethanolic phase. The activity of the different products was expressed in 50% inhibitory concentration called CI50 in Table II.

| IC50 [nM] | SMILES |
| --- | --- |
| 10000 | CC(=O)SCC(Cc1ccccc1)C(=O)Nc1ccccc1 (stereo not drawn) [Example 1, Ethanethioate of S-[3-oxo-3-phenylamino-2-benzyl-propyl]] |
| 1000 | O=C(Nc1ccccc1)C(CS)Cc1ccccc1 (stereo not drawn) [Example 2, α-mercaptomethyl-N-phenyl-benzene propanamide] |
| 1000 | CC(=O)SCC(Cc1ccccc1)C(=O)Nc1ccc(Cl)cc1 (stereo not drawn) [Example 3, Ethanethioate of S-[3-(4-chlorophenylamino)-3-oxo-2-benzylpropyl]] |
| 1000 | O=C(Nc1ccc(Cl)cc1)C(CS)Cc1ccccc1 (stereo not drawn) [Example 4, N-(4-chlorophenyl)-α-mercaptomethyl-benzene-propanamide] |
| 100 | O=C(Nc1ccncc1)C(CS)Cc1ccccc1 (stereo not drawn) [Example 30, N-(4-pyridinyl) α-(mercaptomethyl)-benzene-propanamide] |
| 50 | COc1ccc(NC(=O)C(CS)Cc2ccccc2)cc1 (stereo not drawn) [Example 36, N-(4-methoxyphenyl) α-(mercaptomethyl)-benzene-propanamide] |
| 60 | COc1cccc(NC(=O)C(CS)Cc2ccccc2)c1 (stereo not drawn) [Example 38, N-(3-methoxyphenyl) α-(mercaptomethyl)-benzene-propanamide] |
